Reference: BindingDB's records for doi:10.1016/j.ejmech.2020.112994 (North-West University, 2021)

Test: Inhibition of EGFR in human A-431 cells assessed as antiproliferative activity incubated for 48 hrs by MTS method

IC50: 1.64 µM
Structure (SMILES): COc1cc2c(Nc3ccc(Br)cc3F)ncnc2cc1OCC1CCN(C(=O)Cn2cncc2[N+](=O)[O-])CC1
